This is an account of results in patent publication US10982219B2, “Guayule with increased rubber production and yield” (The United States of America, as represented by the …, priority 2017, dated 2021).

Holding throughout (format): in vivo, Parthenium argentatum
Experiment [1] has as its system guayule G7-11 plants. Kind of experiment: Exogenous SA applied to soil of greenhouse guayule, growth and rubber content. The settings on record: 50 ml of 10 nM SA to soil twice weekly for two months. Here is the method: (§1) The effect of SA on guayule PaAos gene expression is tested in wild-type guayule G7-11 plants. SA is added to the growth medium (K0) in tissue culture at different concentrations, 0 nM, 10 nM and 100 nM. Shoot tips are transferred to the growth media, and plants are grown for 8 weeks. The rubber content of the plant tissues is determined by standard procedures (ASE, see Example 3 supra). […] The effect of exogenous 10 nM SA on one month old guayule plants grown in the soil under greenhouse conditions is also examined.

The subject of experiment [2] is guayule G7-11 plants. The experiment can be described thus: Exogenous SA in tissue culture growth medium, rubber content by ASE. The note with it: 8 weeks, versus 0 nM. Here is the method:
as §1

Experiment [3] relates to PaAos. Kind of experiment: qRT-PCR of PaAOS in SA treated soil-grown guayule. The settings on record: 10 nM SA to soil twice weekly for two months. On the procedure:
as §1
(In general: Quantitative PCR measures a nucleic acid by following its amplification.)

For `O=C(O)c1ccccc1O` [SA, salicylic acid], in experiment [1] (versus mock or water treated), the “height and primary stem diameter” value is “significant differences in the height and primary stem diameter”. In addition, the rubber content result in experiment [1] (versus mock treated) is “slightly increases and significantly differs”. In addition, the “amount of rubber produced” value in experiment [2] (10 nM SA in growth medium) and in experiment [2] (100 nM SA in growth medium) was “increases the amount of rubber produced in a significant manner” in each case. The “PaAOS expression (qRT-PCR)” value in experiment [3] was “low expression pattern”.
